# Data from paper PMC10830684, “Effect of Oregon grape root extracts on P-glycoprotein mediated transport in in vitro cell lines” (Journal of Pharmacy & Pharmaceutical Sciences, 2024).
# Structures can show the parent of a compound that is named as a salt. Where two headings read alike, the source gives them in different places.
# How the values were obtained:
# MDCKII-MDR1 cells = test: MTT cytotoxicity assay in MDCKII-MDR1 cells; type: cell-based, Canine; conditions: 4 hours exposure
# Description: (§1) We initiated cytotoxicity experiments with the Caco-2, MDCKII-MDR1 and MDCKII-wild type cells on Day 7 (Caco-2) and Day 4 (MDCKII-MDR1 and MDCKII-wild type) after the initial plating of the cells at 2.5 × 10^3 cells/well in 48-well plates (Becton Dickinson, Franklin Lakes, NJ, USA). See details of preparation for the cytotoxicity experiments in Supplementary Material.
# (§2) We initiated cytotoxicity experiments with the Caco-2, MDCKII-MDR1 and MDCKII-wild type cells on Day 7 (Caco-2) and Day 4 (MDCKII-MDR1 and MDCKII-wild type) after the initial plating of the cells at 2.5x10^3 cells/well in 48-well plates (Becton Dickinson, Franklin Lakes, NJ, USA). Stock solutions of 10 mM berberine or berbamine were prepared by dissolving the compounds in DMSO (berberine) or distilled water (berbamine). […] The final concentration of DMSO was 0.003% (v/v), 0.03% (v/v), 0.3% (v/v), 1% (v/v), 1.5% (v/v), and 3% (v/v) DMSO/culture medium for 0.3 μM, 3 μM, 30 μM, 100 μM, ,150 μM, and 300 μM, respectively. The final concentration of ethanol was 0.15% (v/v) ethanol/culture medium. Ketoconazole (75 µM) was used as a positive control and no treatment (medium alone) was used as a negative control for each experiment.
# (§3) The LDH enzymatic activities were assayed using the method of Mitchell et al.(1). […] Enzyme leakage into the medium was expressed as the percentage of total cellular LDH. The MTT (3-(4,5-dimethythiazole-2yl)-2,5-diphenyl tetrazolium bromide) reduction assay was done according to Mosmann (2). This assay was conducted immediately with the same cells used in the LDH study. The results were expressed as the percentage of negative controls.
# Caco-2 cells [1] = test: LDH leakage cytotoxicity assay in Caco-2 cells; type: cell-based, human; conditions: 300 µM, 4 hours exposure
# Description: as §1
# (§4) We initiated cytotoxicity experiments with the Caco-2, MDCKII-MDR1 and MDCKII-wild type cells on Day 7 (Caco-2) and Day 4 (MDCKII-MDR1 and MDCKII-wild type) after the initial plating of the cells at 2.5x10^3 cells/well in 48-well plates (Becton Dickinson, Franklin Lakes, NJ, USA). Stock solutions of 10 mM berberine or berbamine were prepared by dissolving the compounds in DMSO (berberine) or distilled water (berbamine).
# as §3
# P-glycoprotein = P-glycoprotein (Homo sapiens, UniProt P08183); test: Effect on 3H-CsA and 3H-digoxin transport in Caco-2 cells; conditions: Caco-2 cells
# Caco-2 cells [2] = test: MTT cytotoxicity assay in Caco-2 cells; type: cell-based, human; conditions: for MTT assay: 4 hours exposure
# Description: as §1, §4, §3
# [3] = Transepithelial transport of berberine and berbamine across Caco-2 cells; type: in vitro ADME, human; conditions: human
# Protocol: (§5) Transport of ^3H-CsA and ^3H-digoxin (0.5 µM and 1.0 µCi), MDR1 substrates, were performed using transport buffer consisting of HBSS with 10 mM HEPES and 25 mM D-glucose at a pH of 6.8 for the apical (A) compartment and 7.4 for the basolateral (B) compartment. Experiments were performed at 37°C, 5% CO2, and 95% relative humidity. Cells in the Transwell® inserts were washed 3 times with a transport buffer and allowed to equilibrate for 30 min prior to the addition of test compounds. […] To evaluate the efflux mechanism involved with berberine and berbamine, 100 µM of berberine and berbamine were placed in the donor chamber and 100 µL samples were collected in the receiver chamber at 0, 0.5, 1.0, 1.5, 2.0, 2.5, and 3.0 h and analyzed by HPLC. Each experiment was performed in duplicate and repeated for each condition tested. For experiments performed in “non-sink” conditions, 100 µL aliquots were taken from the donor and receiver chambers at the beginning and from the receiver chamber at 0.5, 1.0, 1.5, 2.0, 2.5, and 3.0 h. An equal volume of 100 µL was replaced in the chamber at each sample time point. “Non-sink” conditions were performed when less than 10% of compound is transported across cells during the transport experiment such that a concentration gradient was always present. For the “sink” condition experiments, the entire receiver volume was replaced at each time interval and a 100 µL aliquot was taken from the receiver volume for scintillation counting. A 100 µL sample was taken from the donor chamber at 3 h in order to calculate the mass balance of radioactivity to determine if adsorption to the cell culture transport apparatus had occurred. Each sample was placed in 0.9 mL of scintillation fluor (Cytoscint ES, ICN, Cosa Mesa, CA, USA) and read on a Beckman LS 6500 (Palo Alto, CA, USA) scintillation counter for ^3H activity. For berberine and berbamine analysis, 100 µL aliquot was assayed by HPLC.
# (§6) The apparent permeability (Papp) was calculated using the following equation [40]: Papp=dQ/dt×1/A×C0
# (§7) Where A is the surface area of the monolayer (4.71 cm^2) and C0 is the initial concentration of radiolabeled probe substrate in the donor compartment. dQ/dt is the slope of the steady-state rate constant. The efflux ratio was determined by dividing the Papp in the B to A direction by the Papp in the A to B direction: Efflux ratio=PappB to A/PappA to B
# (§8) A Waters 2690 separations module with a Model 996 photodiode array detector with the Millennium 32 Chromatograph Manager version 3.0 software (Waters Corporation, Milford, MA, USA) was used for HPLC analysis. […] All the standards and samples were filtered (0.2 µm) prior to injection. Ten µL was injected onto a 250 × 4.6 mm i.d., […], Zorbax Eclipse X DB-C18 Column (Agilent Technologies, Palo Alto, CA, USA) with a 3.9 × 20 mm i.d. Symmetry® C18 guard column, with an isocratic mobile phase of 32:68 acetonitrile:buffer. The buffer consisted of 30 mM ammonium acetate and 14 mM TEA and was adjusted to pH 4.85 with acetic acid. A flow rate of 1 mL/min and UV absorption at 254 nm was used for analysis. The retention time of berberine and berbamine was 7.84 min and 3.03 min, respectively. The cumulative amount of transport was determined using the corresponding peak area for berberine or berbamine. The cumulative amount of berberine or berbamine transported across the cell membrane was evaluated as a functionof time. The Papp was calculated by the following equation: […]
# Caco-2 cells [4] = test: as above; type: in vitro ADME, human
# Protocol: as §5, §6, §7, §8
# P-glycoprotein (MDR1) = biological target: T1, P-glycoprotein (MDR1) (Homo sapiens, UniProt P08183); test: Transepithelial transport of berberine and berbamine across MDCKII-MDR1 cells; type: in vitro ADME; conditions: dog, MDCK-MDR1
# T1 construct: expressed in transfected cells; host or cells: MDCKII-MDR1 (Madin-Darby canine kidney II cells overexpressing MDR1)
# Protocol: Transport of ^3H-CsA and ^3H-digoxin (0.5 µM and 1.0 µCi), MDR1 substrates, were performed using transport buffer consisting of HBSS with 10 mM HEPES and 25 mM D-glucose at a pH of 6.8 for the apical (A) compartment and 7.4 for the basolateral (B) compartment. Experiments were performed at 37°C, 5% CO2, and 95% relative humidity. Cells in the Transwell® inserts were washed 3 times with a transport buffer and allowed to equilibrate for 30 min prior to the addition of test compounds. […] To evaluate the efflux mechanism involved with berberine and berbamine, 100 µM of berberine and berbamine were placed in the donor chamber and 100 µL samples were collected in the receiver chamber at 0, 0.5, 1.0, 1.5, 2.0, 2.5, and 3.0 h and analyzed by HPLC. Each experiment was performed in duplicate and repeated for each condition tested. […] A 100 µL sample was taken from the donor chamber at 3 h in order to calculate the mass balance of radioactivity to determine if adsorption to the cell culture transport apparatus had occurred. Each sample was placed in 0.9 mL of scintillation fluor (Cytoscint ES, ICN, Cosa Mesa, CA, USA) and read on a Beckman LS 6500 (Palo Alto, CA, USA) scintillation counter for ^3H activity. […]
# The apparent permeability (Papp) was calculated using the following equation [40]: Papp=dQ/dt×1/A×C0 […]
# MDCKII wild-type cells = test: MTT cytotoxicity assay in MDCKII wild-type cells; type: cell-based, Canine; conditions: MDCKII-WT cells, 4 hours exposure
# Description: as §1, §2, §3
# P-gp = system: P-gp; set-up: method as in PMID 12434406; conditions: Caco-2 cells; inhibitor 1 mM; cited from earlier work
# human MDR1 mRNA = test: Real time RT-PCR of MDR1 mRNA in Caco-2 cells; type: cell-based; conditions: 100 µM, positive control
# [5] = 14C-mannitol permeability (monolayer integrity) in Caco-2 cells; type: in vitro ADME, human; conditions: human, Caco-2 cells, read-out: apparent permeability (Papp)
# Protocol: (§9) The human intestinal epithelial cell line, LS-180 was purchased from American Type Culture Collection (ATCC) (Manassas, VA, USA) and grown in Minimum Essential Medium supplemented with 10% FBS. The Caco-2 cells were obtained from ATCC. MDCKII-MDR1 and MDCKII wild-type cell lines were a generous gift from Dr. Piet Borst (The Netherlands Cancer Research Institute). Both Caro-2 and MDCKII cells were grown in DMEM, 10% FBS, 0.1 mM non-essential amino acids, and 0.01% penicillin/streptomycin [38, 39]. […] For the transport experiments, cells were seeded, 3.0 × 10^5cells/well, onto 6-well Transwell® inserts 4.71 cm^2 (Corning Costar, Cambridge, MA, USA) and maintained until use on Days 21–25 (Caco-2, passages 23–30) and Days 6–7 (MDCKII-MDR1 and MDCKII wild-type). The integrity of the monolayers was assessed by measuring transepithelial electrical resistance (TEER) using a World Precision Instrument, EVOM (Sarasota, FL, USA) and evaluating ^14C-mannitol transport. […] For the real time RT-PCR, cells were seeded at 6 × 10^5 cells/well (Caco-2) and 1 × 10^6 cells/well (LS-180) onto 6-well Transwell® inserts 4.71 cm^2 and grown for 7 (Caco-2) and 6 (LS-180) days.
# Caco-2 cells [6] = test: as above; type: in vitro ADME, human; conditions: various treatment conditions, throughout the entire experiment
# Protocol: as §9
# [7] = 14C-mannitol permeability (monolayer integrity) in MDCKII wild-type cells; type: in vitro ADME, Canine; conditions: dog, MDCK, read-out: apparent permeability (Papp)
# Protocol: as §9
# [8] = 14C-mannitol permeability (monolayer integrity) in MDCKII-MDR1 cells; type: in vitro ADME, Canine; conditions: dog, MDCK-MDR1, read-out: apparent permeability (Papp)
# Protocol: as §9
# T1 sequence (P08183 whole entry): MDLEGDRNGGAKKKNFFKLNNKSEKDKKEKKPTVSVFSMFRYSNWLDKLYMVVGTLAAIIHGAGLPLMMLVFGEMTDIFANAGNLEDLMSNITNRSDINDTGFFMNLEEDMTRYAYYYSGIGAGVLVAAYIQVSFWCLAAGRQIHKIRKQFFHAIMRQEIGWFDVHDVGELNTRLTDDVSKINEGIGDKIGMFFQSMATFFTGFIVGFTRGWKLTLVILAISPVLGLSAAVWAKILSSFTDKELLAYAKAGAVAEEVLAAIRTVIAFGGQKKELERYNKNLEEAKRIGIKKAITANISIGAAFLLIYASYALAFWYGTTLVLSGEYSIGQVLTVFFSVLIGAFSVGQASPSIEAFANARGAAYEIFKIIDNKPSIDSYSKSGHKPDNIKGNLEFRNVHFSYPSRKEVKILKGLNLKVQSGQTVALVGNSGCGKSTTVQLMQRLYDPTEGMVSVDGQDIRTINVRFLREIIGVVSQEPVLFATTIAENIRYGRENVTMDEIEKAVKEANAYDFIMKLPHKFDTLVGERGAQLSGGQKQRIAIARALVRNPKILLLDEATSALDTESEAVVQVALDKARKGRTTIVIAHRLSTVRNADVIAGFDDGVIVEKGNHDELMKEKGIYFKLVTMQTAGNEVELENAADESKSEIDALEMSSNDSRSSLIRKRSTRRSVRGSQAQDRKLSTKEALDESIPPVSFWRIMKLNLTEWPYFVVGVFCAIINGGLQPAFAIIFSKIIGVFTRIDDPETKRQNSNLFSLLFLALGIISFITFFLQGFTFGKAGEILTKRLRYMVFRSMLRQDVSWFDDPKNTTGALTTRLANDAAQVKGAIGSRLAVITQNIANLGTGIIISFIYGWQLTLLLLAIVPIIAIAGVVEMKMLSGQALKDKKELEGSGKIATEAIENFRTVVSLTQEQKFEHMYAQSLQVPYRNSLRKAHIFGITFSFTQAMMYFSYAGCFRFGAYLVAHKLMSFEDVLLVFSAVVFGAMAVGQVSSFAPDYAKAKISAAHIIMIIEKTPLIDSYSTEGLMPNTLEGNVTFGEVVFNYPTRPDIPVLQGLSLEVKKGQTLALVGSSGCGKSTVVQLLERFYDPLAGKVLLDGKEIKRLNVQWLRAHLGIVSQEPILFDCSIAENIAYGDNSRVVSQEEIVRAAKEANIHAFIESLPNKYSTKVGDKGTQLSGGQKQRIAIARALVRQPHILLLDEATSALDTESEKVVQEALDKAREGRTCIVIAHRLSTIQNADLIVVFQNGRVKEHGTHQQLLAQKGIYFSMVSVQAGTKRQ
# Chain of P-glycoprotein (P08183 whole entry): as above
compound,measurement,setting,value
"COc1cc2c3cc1Oc1c(OC)c(OC)cc4c1[C@@H](Cc1ccc(O)c(c1)Oc1ccc(cc1)C[C@@H]3N(C)CC2)N(C)CC4 [Berbamine, berbamine dihydrochloride]",MTT assay,MDCKII-MDR1 cells; 0.03 µM,□ (%MTT reduction is not significantly decreased compared with the negative control)
same,MTT assay,MDCKII-MDR1 cells; 0.3 µM,□ (%MTT reduction is not significantly decreased compared with the negative control)
same,MTT assay,MDCKII-MDR1 cells; 30 µM,□ (%MTT reduction is not significantly decreased compared with the negative control)
same,MTT assay,MDCKII-MDR1 cells; 100 µM,□ (%MTT reduction is not significantly decreased compared with the negative control)
same,MTT assay,MDCKII-MDR1 cells; 150 µM,□ (%MTT reduction is not significantly decreased compared with the negative control)
same,MTT assay,MDCKII-MDR1 cells; 300 µM,□ (%MTT reduction is not significantly decreased compared with the negative control)
same,LDH assay,Caco-2 cells [1],43.88 ± 7.44%
same,lowest concentration with significant decrease of B to A transport of 0.5 µM 3H-CsA,P-glycoprotein,30 µM
same,MTT assay,Caco-2 cells [2]; 0.03 µM,□ (%MTT reduction is not significantly decreased compared with the negative control)
same,MTT assay,Caco-2 cells [2]; 0.3 µM,□ (%MTT reduction is not significantly decreased compared with the negative control)
same,MTT assay,Caco-2 cells [2]; 30 µM,□ (%MTT reduction is not significantly decreased compared with the negative control)
same,MTT assay,Caco-2 cells [2]; 100 µM,□ (%MTT reduction is not significantly decreased compared with the negative control)
same,MTT assay,Caco-2 cells [2]; 150 µM,□ (%MTT reduction is not significantly decreased compared with the negative control)
same,MTT assay,Caco-2 cells [2]; 300 µM,64.99 ± 11.46%
same,earliest time of significant increase in LDH leakage and decrease in MTT reduction,"Caco-2 cells [2]; 300 µM, time-response 2, 4, 6, 8 hr, data not shown",2 h
same,"efflux ratio at 3 h, 100 µM","[3]; Caco-2, 100 µM, Caco-2 cells, read-out: fold increase of Papp B to A compared with A to B",~30
same,"efflux ratio at 3 h, 100 µM","[3]; Caco-2, Caco-2 cells, read-out: efflux ratio",24.2 ± 4.5
same,"Papp A→B at 3 h, 100 µM","[3]; 100 µM, Caco-2 cells, read-out: Papp A to B direction",2.49 ×10⁻⁶ cm/s
same,"Papp B→A at 3 h, 100 µM","[3]; 100 µM, Caco-2 cells, read-out: Papp B to A direction",60.3 ×10⁻⁶ cm/s
same,transport in the A to B direction,"Caco-2 cells [4]; 100 µM, Caco-2 cells",0.39 nmol/min
same,transport in the B to A direction,"Caco-2 cells [4]; 100 µM, Caco-2 cells",5.94 nmol/min
same,extent of efflux relative to berberine,Caco-2 cells [4]; Caco-2 and MDCKII-MDR1 cells,~5 fold
same,"efflux ratio at 3 h, 100 µM",P-glycoprotein (MDR1),27.4 ± 5.1
same,MTT assay,MDCKII wild-type cells; 0.03 µM,□ (%MTT reduction is not significantly decreased compared with the negative control)
same,MTT assay,MDCKII wild-type cells; 0.3 µM,□ (%MTT reduction is not significantly decreased compared with the negative control)
same,MTT assay,MDCKII wild-type cells; 30 µM,□ (%MTT reduction is not significantly decreased compared with the negative control)
same,MTT assay,MDCKII wild-type cells; 100 µM,□ (%MTT reduction is not significantly decreased compared with the negative control)
same,MTT assay,MDCKII wild-type cells; 150 µM,□ (%MTT reduction is not significantly decreased compared with the negative control)
same,MTT assay,MDCKII wild-type cells; 300 µM,64.32 ± 13.1%
COc1cccc2c1C(=O)c1c(O)c3c(c(O)c1C2=O)C[C@@](O)(C(C)=O)C[C@@H]3O[C@H]1C[C@H](N)[C@H](O)[C@H](C)O1 [daunomycin],inhibition of the efflux of 20 µM berberine,P-gp,100%
N[C@@H](Cc1cc(I)c(Oc2cc(I)c(O)c(I)c2)c(I)c1)C(=O)O [levothyroxine],P-gp (MDR1) mRNA,human MDR1 mRNA,significantly increase
OC[C@@H](O)[C@@H](O)[C@H](O)[C@H](O)CO [mannitol],Papp,[5],2.09 ± 0.4 ×10⁻⁶ cm/s
same,transport rate,Caco-2 cells [6],less than 1 % per hour
same,Papp,[7],2.16 ± 0.72 ×10⁻⁶ cm/s
same,Papp,[8],2.38 ± 0.13 ×10⁻⁶ cm/s
COC(=O)c1ccccc1-c1c2ccc(=N)cc-2oc2cc(N)ccc12 [rhodamine123],inhibition of the efflux of 20 µM berberine,P-gp,100%
